Experimental data taken from patent US20040142933A1, “Oxindole substituted piperazine derivatives” (priority 2002, published 2004).
pKi: −log10 of the molar value.

Key:
[1] = target: T1, serotonin 2A (5HT2A) receptor (Homo sapiens, UniProt P28223); assay: Serotonin 2A binding, [3H]ketanserin, Swiss-h5HT2A cell membranes; settings: [3H]ketanserin 1.0 nM
T1 construct: expressed in transfected cells; host or cells: Swiss cells (Swiss-h5HT2A)
Text: (§1) The ability of the compounds of this invention to bind to the dopamine D2 and serotonin 2A (5HT2A) receptors can be determined using conventional radioligand receptor binding assays. All receptors can be heterologously expressed in cell lines and experiments conducted in membrane preparations from the cell lines using procedures outlined below. IC50 concentrations can be determined by nonlinear regression of concentration-dependent reduction in specific binding. The Cheng-Prussoff equation can be used to convert the IC50 to Ki concentrations.
[^3H] Ketanserin binding to Swiss-h5HT2A cell membranes can be carried out in 250 μl of 50 mM Tris-HCl buffer pH 7.4. Duplicate samples containing (in order of addition) test compounds, 1.0 nM [^3H]ketanserin, and approximately 75 μg protein are incubated for 120 minutes at room temperature. Bound radioligand is separated by rapid filtration under reduced pressure through Whatman GF/B glass fiber filters previously treated with 0.3% polyethyleneimine. Radioactivity retained on the filter is determined by liquid scintillation spectrophotometry.
The title compounds of Examples 1-14 were tested using the above assay, in which specific binding determined in the presence of 1 mM ketanserin was 90%.

[2] = target: T2, dopamine D2 receptor (Homo sapiens, UniProt P14416); assay: Dopamine D2 receptor binding, [3H]spiperone, CHO-hD2L cell membranes; settings: [3H]spiperone 0.4 nM
T2 construct: expressed in transfected cells; host or cells: CHO cells (CHO-hD2L)
T2 sequence (P14416 whole entry): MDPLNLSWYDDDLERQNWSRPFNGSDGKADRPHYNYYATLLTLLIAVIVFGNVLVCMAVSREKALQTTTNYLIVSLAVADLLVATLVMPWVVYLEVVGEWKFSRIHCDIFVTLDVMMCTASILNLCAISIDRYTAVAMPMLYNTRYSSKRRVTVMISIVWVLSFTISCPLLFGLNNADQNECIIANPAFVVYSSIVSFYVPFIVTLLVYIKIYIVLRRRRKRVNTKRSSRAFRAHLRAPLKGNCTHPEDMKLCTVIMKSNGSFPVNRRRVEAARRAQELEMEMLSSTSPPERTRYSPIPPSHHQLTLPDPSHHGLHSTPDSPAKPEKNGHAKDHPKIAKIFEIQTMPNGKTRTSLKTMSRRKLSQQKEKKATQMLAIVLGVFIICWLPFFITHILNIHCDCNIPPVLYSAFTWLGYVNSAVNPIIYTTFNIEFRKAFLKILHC
Text: as §1
Dopamine D2 Receptor Binding:
[^3H]Spiperone binding to a membrane preparation from CHO-hD2L cells is carried out in 250 μl of 50 mM Tris-HCl buffer containing 100 mM NaCl, 1 mM MgCl2 and 1% DMSO at pH 7.4. Duplicate samples containing (in order of addition) the test compounds, 0.4 nM [^3H]spiperone and approximately 12 μg protein are incubated for 120 minutes at room temperature. Bound radioligand is separated by rapid filtration under reduced pressure through Whatman GF/B glass fiber filters previously treated with 0.3% polyethyleneimine. Radioactivity retained on the filter is determined by liquid scintillation spectrophotometry.
The title compounds of Examples 1-14 were tested using the above assay, in which specific binding determined in the presence of 1 mM haloperidol was 95%.

T1 sequence (P28223 whole entry): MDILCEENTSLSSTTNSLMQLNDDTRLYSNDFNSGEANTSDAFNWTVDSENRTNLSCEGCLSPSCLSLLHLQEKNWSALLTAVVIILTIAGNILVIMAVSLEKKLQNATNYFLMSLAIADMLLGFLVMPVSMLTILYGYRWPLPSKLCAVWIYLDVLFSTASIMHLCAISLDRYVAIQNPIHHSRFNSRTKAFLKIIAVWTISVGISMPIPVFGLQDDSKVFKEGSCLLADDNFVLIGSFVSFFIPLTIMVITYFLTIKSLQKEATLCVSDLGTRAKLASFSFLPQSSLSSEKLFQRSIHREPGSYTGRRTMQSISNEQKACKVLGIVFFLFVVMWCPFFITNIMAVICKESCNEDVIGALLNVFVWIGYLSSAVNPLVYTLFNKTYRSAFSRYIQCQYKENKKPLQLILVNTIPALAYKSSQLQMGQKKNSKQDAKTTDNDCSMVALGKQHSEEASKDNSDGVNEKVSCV

Row | pKi [1] | pKi [2] | Structure (SMILES)
1 | 9.12 | 7.83 | CC(C)=C1C(=O)N(C)c2ccc(CCN3CCN(c4nsc5ccccc45)CC3)cc21 [Example 1, 5-[2-(4-1,2-benzisothiazol-3-yl-piperazin-1-yl)-ethyl]-3-isopropylidene-1-methyl-1,3-dihydro-indol-2-one]
2 |  | 7.31 | CC(C)=C1C(=O)Nc2ccc(CCCN3CCN(c4noc5ccccc45)CC3)cc21 [Example 4, 5-[3-(4-1,2-Benzisoxazol-3-yl-piperazin-1-yl)-propyl]-3-isopropylidene-1,3-dihydro-indol-2-one]
3 | 8.08 | 8.89 | CC(C)=C1C(=O)Nc2cc(Cl)c(CCN3CCN(c4nsc5ccccc45)CC3)cc21 [Example 5, 5-[2-(4-1,2-benzisothiazol-3-yl-piperazin-1-yl)-ethyl]-6-chloro-3-isopropylidene-1,3-dihydro-indol-2-one]
4 | 8.13 |  | CC1(C)CC12C(=O)Nc1cc(Cl)c(CCCN3CCN(c4nsc5ccccc45)CC3)cc12 (stereo not drawn) [Example 14, Spiro[cyclopropane-1,3′-{3H}indol]-2′(1′H)-one,5′-[3-[4-{1,2-benzisothiazol-3-yl}-1-piperazinyl]propyl]-6′-chloro-2,2-dimethyl—]
